Test results reported in publication PMC3024946, “Hydroxyproline-containing collagen analogs trigger the release and activation of collagen-sequestered proMMP-2 by competition with prodomain-derived peptide P33-42” (Fibrogenesis & Tissue Repair, 2011).
“Also recorded” adds a separate entry of the source.

Tests used:
actMMP-2 / CI [1] = target: T1, actMMP-2 / CI (Homo sapiens, UniProt P08253); experiment: SPR, competition of actMMP-2 binding to CI, nonactivating buffer
T1 construct: purchased Invitek
T1 sequence (P08253 110-660): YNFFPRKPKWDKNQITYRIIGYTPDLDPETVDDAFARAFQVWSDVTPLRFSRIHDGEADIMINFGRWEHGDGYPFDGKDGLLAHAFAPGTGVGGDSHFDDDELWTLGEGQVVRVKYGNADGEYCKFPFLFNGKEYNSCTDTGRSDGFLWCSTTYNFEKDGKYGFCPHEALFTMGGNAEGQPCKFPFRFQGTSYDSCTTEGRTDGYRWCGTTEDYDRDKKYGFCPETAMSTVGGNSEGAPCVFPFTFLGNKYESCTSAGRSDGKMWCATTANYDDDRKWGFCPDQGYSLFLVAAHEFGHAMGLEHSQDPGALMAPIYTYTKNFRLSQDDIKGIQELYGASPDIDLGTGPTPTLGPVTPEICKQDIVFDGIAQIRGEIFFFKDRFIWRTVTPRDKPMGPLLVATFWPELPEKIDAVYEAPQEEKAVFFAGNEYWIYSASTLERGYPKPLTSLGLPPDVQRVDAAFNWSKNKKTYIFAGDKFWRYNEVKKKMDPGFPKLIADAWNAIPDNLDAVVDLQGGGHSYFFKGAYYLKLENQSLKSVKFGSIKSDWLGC
Method: (§1) Sensor chip preparations and SPR measurements were performed using a BiacoreX device and the Bia-evaluation software (version 3.2; Biacore, Uppsala, Sweden). The pepsin-resistant triple-helical part of human fibrillar CI (100 μg/ml) in 10 mM acetate coupling buffer, pH 4.8, was immobilized to a dextran matrix-sensor chip at a flow rate of 5 μl/min, resulting in 5,500 resonance units from CI covalently linked via its primary amino groups. The control flow cell was prepared using the coupling buffer without CI. Surfaces were activated and blocked as described previously. […] The effects of (GPO)10, GAP, (POG)5, (GPP)10 and P33-42 on MMP-2 and MMP-9 binding to CI and their enzymatic activity were determined by adding the binding competitors to the (pro- and act)MMP-2 and MMP-9 solution in 10- to 150-fold molar excesses. Effects independent of MMP-2 and MMP-9 activity were monitored in the presence of Ro 28-2653 (1 μM) during SPR analysis. […] Kinetic parameters were analyzed using the 1:1 binding model with drifting baseline and subtraction of the control flow cell binding from sensorgrams obtained with immobilized CI. Binding constants (Kd) were calculated from the association (ka) and dissociation rates (kd) obtained from individual binding curves at different concentrations. […]

proMMP-9 / CI = target: T2, proMMP-9 / CI (Homo sapiens, UniProt P14780); experiment: SPR, competition of proMMP-9 binding to CI, MMP activity buffer; details: proMMP-9 (25-150 nM), 10-fold molar excess
T2 construct: prodomain-containing proMMP-2 or proMMP-9; purchased Invitek
Method: as §1

actMMP-2 / CI [2] = target: T1, actMMP-2 / CI; experiment: SPR, competition of actMMP-2 binding to CI, MMP activity buffer with Ro 28-2653; details: actMMP-2 100 nM, 1 μM Ro 28-2653, 25°C, mean ± SD, at least three experiments
Method: as §1

ProMMP-2 [3] = experiment: Fluorogenic short-substrate assay, activation of proMMP-2; type: biochemical, human; details: 10-fold excess; 50 ng proMMP-2; 800 nM MCA-Pro-Leu-Gly-Leu-Dnp-Dap-Ala-Arg-NH2; 37°C; on BSA or CI
Method: Enzymatic activities of MMPs were studied spectrofluorimetrically by cleavage of fluorogenic substrates in MMP activity buffer within 2 to 5 h. For gelatinases 800 nM MCA-Pro-Leu-Gly-Leu-Dnp-Dap-Ala-Arg-NH2 (λex/em 328/393 nm; Bachem, Bubendorf, Switzerland) or 10 μg/ml DQ-gelatine were used, according to the method described by Knight et al. for collagenases 800 nM MCA-Pro-Cha-Gly-Nva-His-Ala-Dpa-NH2 (λex/em 280/360 nm; Anaspec, San José, CA, USA). In some experiments, proMMP-2 was fully activated in the presence of 1 mM APMA prior to the kinetic measurements. A quantity of 50 ng pro- or actMMP-2 alone or mixed with 10- to 150-fold molar excesses of (GPO)10, GAP, P33-42 or mixtures of (GPO)10 and P33-42, were added to CI-coated, BSA-coated (1 μg/well both) or uncoated wells containing 150 μl of the respective substrate solution. The peptide P33-42 was purchased from the Institute of Biochemistry (Humboldt-University, Berlin, Germany). The influence of CI on MMP-2 enzymatic activity against the quenched fluorescent substrate could be excluded. Background subtraction (measurement without MMPs) was applied to all curves. All experiments were performed with a fluorescence microplate reader (Molecular Devices, Sunnyvale, CA, USA) and black 96-well microtiter plates with a clear bottom (Greiner bio-one, Frickenhausen, Germany).

ProMMP-2 [4] = experiment: Substrate gel zymography of treated proMMP-2; type: biochemical, human; details: 50 ng proMMP-2, 2-h incubation at room temperature
Method: Samples containing MMP-2 were diluted with zymogram sample buffer (Bio-Rad, Munich, Germany) and separated on homogeneous 10% SDS-PAGE gels containing 1 mg/ml (wt/vol) gelatine (Bio-Rad), washed with excess MMP activity buffer containing 2.5% (vol/vol) Triton X-100 to remove SDS, and incubated with MMP activity buffer for 24 h. Gels were stained with Coomassie Blue R-250. Gels showing proteolytic bands corresponding to proMMP-2 (72 kDa) or actMMP-2 (62 kDa) were scanned (Plustek, Norderstedt, Germany) and analyzed from inverted grayscale images.

T2 sequence (P14780 20-707 limits assumed): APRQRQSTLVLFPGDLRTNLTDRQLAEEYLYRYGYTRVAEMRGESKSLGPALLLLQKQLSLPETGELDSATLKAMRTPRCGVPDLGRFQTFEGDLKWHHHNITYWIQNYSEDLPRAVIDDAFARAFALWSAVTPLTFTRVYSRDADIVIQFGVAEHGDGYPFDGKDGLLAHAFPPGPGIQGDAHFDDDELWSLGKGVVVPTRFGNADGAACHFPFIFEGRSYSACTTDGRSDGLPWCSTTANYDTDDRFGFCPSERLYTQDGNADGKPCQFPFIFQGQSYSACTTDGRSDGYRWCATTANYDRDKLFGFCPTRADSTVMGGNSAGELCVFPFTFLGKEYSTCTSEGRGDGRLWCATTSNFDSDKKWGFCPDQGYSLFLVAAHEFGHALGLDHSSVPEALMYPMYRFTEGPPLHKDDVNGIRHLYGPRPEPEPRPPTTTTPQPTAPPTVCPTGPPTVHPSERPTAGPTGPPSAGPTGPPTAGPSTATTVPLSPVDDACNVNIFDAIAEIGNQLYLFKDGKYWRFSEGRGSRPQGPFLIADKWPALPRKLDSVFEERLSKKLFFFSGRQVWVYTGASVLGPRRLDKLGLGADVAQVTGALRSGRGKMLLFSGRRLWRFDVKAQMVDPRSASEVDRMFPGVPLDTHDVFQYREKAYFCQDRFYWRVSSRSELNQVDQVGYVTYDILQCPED

H-Gly-Cys-Hyp-(Gly-Pro-Hyp)10-Gly-Cys-Hyp-Gly-NH2 [(GPO)10, triple-helical Hyp-containing collagen analog]
Off rate (actMMP-2 / CI [1]; actMMP-2 (100 nM) binding to CI with 10× (GPO)10, PBS, 0.05% Tween 20): 0.56 s⁻¹
effect on binding to CI (actMMP-2 / CI [1]; actMMP-2, 10-fold molar excess): only slightly impaired
effect on binding to CI (proMMP-9 / CI): abolished binding of proMMP-9 to CI
Kd for binding to CI in the presence of 10-fold molar excess of competitor (actMMP-2 / CI [2]): 2,710.0 ± 90.0 nM
activation of proMMP-2 (ProMMP-2 [3]): resulted in the same plateau activity as actMMP-2 without (GPO)10
substrate zymography, prodomain-free actMMP-2 band (ProMMP-2 [4]): faint band of prodomain-free actMMP-2; also recorded: not accompanied by strong prodomain cleavage
